Experiments:
[1] = system: differentiated U937 cells; assay: LPS-induced TNF-α secretion by differentiated U937 cells; assay type: cell-based, human; settings: LPS 10 ng/ml, 6 h, liposomes; LPS without phospholipid = 100%
Protocol: (§1) FIG. 1. Anionic phospholipids inhibit inflammatory mediator production induced by LPS. Liposomes composed of sphingomyelin (SM), phosphatidylethanolamine (PE) dipalmitoyl-phosphatidylcholine ((DPPC), phosphatidylserine (PS), palmitoyl-oleoyl-phosphatidylglycerol (POPG) and phosphatidylinositol (PI) were formed by bath-sonication for 30 min at room temperature. LPS (10 ng/ml) and different concentrations of phospholipids were added to monolayer cultures of differentiated U937 cells (A), or primary rat alveolar macrophages (B). At 6 h after stimulation, media were collected and secreted TNF-α levels were determined in U937 cultures. NO production was determined 24 h after stimulating rat alveolar macrophages. LPS stimulation in the absence of phospholipid was set as 100%. […] The average TNF-α production upon LPS stimulation was (8.0±0.54 ng/ml). The average NO production upon LPS stimulation was 12.17±0.27 μM.
(§2) FIG. 2. The inhibitory effect of phosphatidylglycerols on LPS-induced inflammatory mediator production is molecular species specific. PG liposomes were formed by bath-sonication for 30 min at room temperature. LPS (10 ng/ml) and different concentrations of PG were added to monolayer cultures of differentiated U937 cells (A) or rat alveolar macrophages (B). Media TNF-α measurements were performed 6 h after stimulation. Media NO measurements were performed 24 h after stimulation. LPS stimulation without PG was set at 100%. The molecular species of PG shown on the graph are 8:0; dioctanoyl-phosphatidylglycerol, 12:0; dilauroyl-phosphatidylglycerol (DLPG), 14:0; dimyristoyl-phosphatidylglycerol (DMPG), 16:0; dipalmitoyl-phosphatidylglycerol (DPPG), 18:0; distearoyl-phosphatidylglycerol, 16:0/18:1; palmitoyl-oleoyl-phosphatidylglycerol (POPG). […] The average TNF-α production upon LPS stimulation was 11.3±0.7 ng/ml. The average NO production upon LPS stimulation was 10.1±0.6 μM.
FIG. 3. […] Surfactant lipid (SL) and POPG were dried under nitrogen, and hydrated at 37° C. for 1 h. (A) SL and POPG were mixed in organic solvents prior to drying and hydrating and subsequently liposomes were produced. (B) SL and POPG were made as independent populations of liposomes that were subsequently mixed prior to macrophage treatment. 10 ng/ml of LPS and different concentrations of liposome mixtures were added to monolayer cultures of differentiated U937 cells. 6 h after stimulation, media were collected and TNF-α production was determined. LPS stimulation without phospholipid was set as 100%. […] The average TNF-α production upon LPS stimulation was 7.0±0.2 ng/ml.
U937 cells were induced to differentiate by treatment with 10 nM phorbol myristate acetate (PMA) for 48 h. The cells (1.3×10^5/well) were placed in 96-well plates and further incubated in the absence of PMA for 24 h in RPMI 1640 medium containing 10% BGS. Rat alveolar macrophages (5×10^5/well) were incubated in 24-well plates for 2 h after isolation. The indicated concentration of phospholipids was added to the cultures 30 min before adding LPS. After LPS addition cultures were incubated for 6 h at 37° C. at an atmosphere of 95% air and 5% CO2. At the end of the incubation period the medium was collected and assayed for TNF-α concentrations using an ELISA kit.
Surfactant lipids were isolated from the bronchioalveolar lavage of Sprague-Dawley rats, 28 days after intratracheal instillation of 25 mg of silica (˜125 mg/kg). Initially, the surfactant was purified by the method of Hawgood et. al. (25) using NaBr density gradient centrifugation. The purified surfactant was extracted with butanol (26) and segregated into butanol-soluble and -insoluble material.

[2] = system: primary rat alveolar macrophages; assay: LPS-induced NO production by rat alveolar macrophages; assay type: cell-based; settings: LPS 10 ng/ml, 24 h, liposomes; LPS without phospholipid = 100%
Protocol: as §1, §2
Rat alveolar macrophages were isolated from bronchoalveolar lavage fluid (BALF) of Sprague-Dawley rats. The lungs were lavaged with pyrogen-free saline, and alveolar macrophages were sedimented by centrifugation at 150×g×5 min. Isolated macrophages were plated at 5×10^5 cells/well in 24-well plates (Falcon) in RPMI 1640 medium containing 10% BGS. The cells were allowed to adhere for 2 h and then used for the experiments after washing with phosphate-buffered-saline (PBS) to remove the unattached cells.
Nitric oxide (NO) accumulation in the supernatant was determined as previously reported (28). Briefly, rat alveolar macrophages were stimulated with LPS (10 ng/ml) or LPS plus phospholipids for 24 h. Culture supernatants (usually […]) were combined with an equal volume of Greiss reagent, and the samples were incubated at room temperature for 10 min before the absorbance was quantified at 550 nm. With the use of a standard curve, the nmol of NO produced were determined and normalized to total cell number in each sample.

[3] = system: U937 macrophages; assay: TNFα in U937 macrophages stimulated with smooth LPS, with SP-A and PtdGro; assay type: cell-based; settings: 100 ng/ml smooth LPS, 6 hours, lipid 20 μg/ml
Protocol: U937 macrophages were stimulated with 100 ng/ml smooth LPS for 6 hours. The culture medium was harvested and assayed for the presence of TNFα by ELISA. Control cultures received no additions. SP-A was added as indicated at 10 μg/ml. Saturated-(16:0/16:0)-PtdGro was added at 20 μg/ml. Unsaturated-(18:1/18:1)-PtdGro was added at 20 μg/ml.

CCCCCCCC(=O)OCC(COP(=O)(O)OCC(O)CO)OC(=O)CCCCCCC (stereo not drawn) [8:0, dioctanoyl-phosphatidylglycerol]
LPS-induced TNF-α production [1]: failed to antagonize
LPS-induced NO production [2]: failed to antagonize

CCCCCCCCCCCC(=O)OCC(COP(=O)(O)OCC(O)CO)OC(=O)CCCCCCCCCCC (stereo not drawn) [12:0, dilauroyl-phosphatidylglycerol]
LPS-induced TNF-α production [1]: modest antagonists

CCCCCCCCCCCCCCCCCC(=O)OCC(COP(=O)(O)OCC(O)CO)OC(=O)CCCCCCCCCCCCCCCCC (stereo not drawn) [18:0, distearoyl-phosphatidylglycerol]
LPS-induced TNF-α production [1]: failed to antagonize
LPS-induced NO production [2]: failed to antagonize

CCCCCCCC/C=C\CCCCCCCC(=O)OC[C@H](COP(=O)(O)OCC(O)CO)OC(=O)CCCCCCC/C=C\CCCCCCCC (stereo partly drawn) [unsaturated-PtdGro, dioleoyl-phosphatidylglycerol]
anti-inflammatory effects on LPS stimulated macrophages (TNFα) [3]: potent anti-inflammatory effects

phosphatidylethanolamine [PE]
LPS-induced TNF-α production [1]: no significant effect
LPS-induced NO production [2]: no significant effect

phosphatidylserine [PS]
LPS-induced TNF-α production [1]: less effective than PI and POPG
LPS-induced NO production [2]: less effective than PI and POPG

sphingomyelin [SM]
LPS-induced TNF-α production [1]: no significant effect
LPS-induced NO production [2]: no significant effect
